Here are results for three compounds from ChEMBL document CHEMBL5620438, “Noducyclamides A1-A4, B1, and B2 from the Cyanobacterium Nodularia sp. NIES-3585” (J Nat Prod, 2024).

Molecules are shown by their SMILES. ≈ marks a conversion by molar mass, not a printed value. Calls of active or inactive are those of the source. The rule behind the calls is not given here.

The subject of assay [1] is MCF7. As to the kind of experiment: Cytotoxicity against human MCF7 cells assessed as decrease in cell viability incubated for 72 hrs by MTT assay. Format: functional, cell-based. The following applies: MCF7, 72 h. A general note: Tetrazolium dyes change colour on reduction, which living cells bring about.
The subject of assay [2] is MCF7. Briefly: Synergistic cytotoxicity against human MCF7 cells assessed as reduction in cell viability incubated for 72 hrs by MTT assay in presence of Noducyclamide B1. Format: functional, cell-based.

By IC50 is commonly meant the concentration at which inhibition is half-maximal.

`CCCCCCC[C@@H]1CC(=O)N[C@@H](CCC(N)=O)C(=O)N2C[C@H](O)C[C@H]2C(=O)N2CCC[C@H]2C(=O)N[C@@H](Cc2ccc(O)cc2)C(=O)N[C@H](CC(C)C)C(=O)N[C@@H](C(C)C)C(=O)N[C@H](C(C)(C)O)C(=O)N[C@@H](CC(C)C)C(=O)NCC(=O)N1`: the IC50 with MCF7 [1] came out at 9.6 µg/mL (≈ 8.22 µM). Also, the result in the assay on MCF7 [2] was inactive.
Regarding `CCCCCCC[C@@H]1CC(=O)N[C@@H](C(C)C)C(=O)N[C@H]([C@@H](O)C(C)C)C(=O)N[C@@H](C)C(=O)N[C@H]([C@@H](O)C(C)C)C(=O)N[C@@H](CCC(N)=O)C(=O)N(C)[C@@H]([C@@H](C)CC)C(=O)N[C@H](CC(N)=O)C(=O)N[C@H]([C@H](C)O)C(=O)N2C[C@H](O)C[C@H]2C(=O)N[C@H](C(C)C)C(=O)N[C@@H]([C@@H](C)O)C(=O)N1`, in the assay with MCF7 [1], the IC50 is 3 µg/mL (≈ 2.17 µM).
For the compound `CCCCCCC[C@@H]1CC(=O)N[C@@H](CCC(N)=O)C(=O)N2C[C@H](O)C[C@H]2C(=O)N2C[C@H](O)C[C@H]2C(=O)N[C@@H](Cc2ccc(O)cc2)C(=O)N[C@H](CC(C)C)C(=O)N[C@@H](C(C)C)C(=O)N[C@H](C(C)(C)O)C(=O)N[C@@H](CC(C)C)C(=O)NCC(=O)N1`, the IC50 with MCF7 [1] came to 18 µg/mL (≈ 15.2 µM). For the same compound, the outcome with MCF7 [2] was inactive.
